In one experiment the test system is IgE antibody present in the serum of a patient (latex-allergic). The experiment can be described thus: Latex epitope mapping (2) overlapping 10-residue peptides and (3) alanine/glycine scanning on peptide arrays. In kind it is binding, human. Particulars: serum of latex-allergic patient P5. As to the method: On the basis of the sequences (SEQ ID NOs: 5, 25, 35, 68 and 83) of the peptides bound to an IgE antibody in serum in a patient-specific manner as described above in (A), a library of overlapping peptide fragments (length: 10 amino acids) was prepared using the sequences of the peptides and sequences in which sequences were added so as to flank each peptide in the amino acid sequences of allergy components comprising the sequences of the peptide. Epitope mapping was carried out using the library.
The peptides to be synthesized were shifted by one amino acid.
The library was prepared by the same procedure as described above in (A), and the presence or absence of binding of an IgE antibody present in the serum of a patient to each peptide fragment was measured by the same technique as described above. Numeric values determined from images obtained as a result of carrying out only the procedures (1) and (4) to (6) described above in the subsection titled (3) Spotting of cellulose-bound peptide solution were used as control values. The control value of each peptide was subtracted from numeric values determined from images obtained from results about the serum of patients, and the obtained value of the difference was compared with values of the peptides serving as the basis of overlapping.
Chemiluminescence intensity in images obtained by measurement was converted into a numeric value in the same manner as in (A). Numeric values determined from images obtained as a result of carrying out only the procedures (1) and (4) to (6) described above in the subsection titled (3) Spotting of cellulose-bound peptide solution (secondary antibody measurement values) were used as control values. The control value of each peptide was subtracted from numeric values determined from images obtained from results about the serum of patients. When values obtained using the sequences (SEQ ID NOs: 5, 25, 35, 68 and 83) serving as the basis of overlapping were defined as 100%, it was determined that: a peptide having a value of the difference that was less than 30% had no binding activity against IgE antibodies; a peptide having a value of the difference that was 30% or more and less than 50% had binding activity, albeit poor, against IgE antibodies; a peptide having a value of the difference that was 50% or more and less than 70% had binding activity, albeit somewhat poor, against IgE antibodies; and a peptide having a value of the difference that was 70% or more had equivalent or good binding activity against IgE antibodies and was thus a peptide had remaining binding activity against IgE antibodies.
From the amino acid sequences identified above in (A), a library of peptide fragments in which amino-terminal amino acids were substituted one by one by alanine (or glycine when the original amino acid was alanine) according to a technique called alanine/glycine scanning (Non Patent Literature 5) was prepared by the same technique as described above. The presence or absence of binding of an IgE antibody present in the serum of a patient to each peptide fragment was measured by the same technique as described above.
Chemiluminescence intensity in images obtained by measurement was converted into a numeric value in the same manner as in (A). Numeric values determined from images obtained from secondary antibody measurement values were used as control values. The control value of each peptide was subtracted from numeric values determined from images obtained from results about the serum of 17 patients (patient Nos. P1-P17). […]
With “107 (YDDKNGYSSS; epitope) [compound 107]”, the “epitope sequence grade for binding to IgE antibody” value (“epitope sequence grade for binding” for short) is given as “Preferably”.

Still in this experiment, the particulars now being: serum of latex-allergic patient P7.
For the substance 109 (WSKFYDDK; epitope) [compound 109], the “epitope sequence grade for binding” value is “Key”.
For “110 (YDDKNGYSSS; epitope) [compound 110]”, the “epitope sequence grade for binding” value is given as “Preferably”.

Still in this experiment, the particulars now being: serum of latex-allergic patient P12.
Turning to “112 (WSKFYDDKNG; epitope) [compound 112]”, the “epitope sequence grade for binding” value was “More preferably”.
Still for that read-out and setting: next, 113 (WSKFYDDKN; epitope) [compound 113]: “Preferably”; 114 (KFYDDK; epitope) [compound 114]: “Key”.

Still in this experiment, the particulars now being: serum of latex-allergic patient P17.
For 115 (WSKFYDDKN; epitope) [compound 115], the “epitope sequence grade for binding” value is “More preferably”.
Turning to 116 (WSKFYD; epitope) [compound 116], the “epitope sequence grade for binding” value was “Preferably”.
Same read-out and setting: next, 117 (SKFYD; epitope) [compound 117]: “Key”.
Same read-out and setting: next, “118 (YDDKNGYSSS; epitope) [compound 118]”: “Preferably”; 119 (DKNGYSSS; epitope) [compound 119]: “Key”.

The same experiment, now with this note: short partial sequences of the 15-residue epitopes.
In the case of KPLN (epitope) [SEQ ID NO: 30], the “confirmed as epitope binding to IgE antibodies” value was “confirmed as epitopes binding to IgE antibodies”.
On the same count and under the same terms, next, KVGK (epitope) [SEQ ID NO: 78]: “confirmed as epitopes binding to IgE antibodies”; QKPY (epitope) [SEQ ID NO: 6]: “confirmed as epitopes binding to IgE antibodies”.

The test system of the next experiment is IgE antibody present in the serum of a latex-allergic patient. Briefly: Latex epitope mapping (1): array of overlapping 15-amino-acid peptides. In kind it is binding, human. As to conditions: 15-residue peptides; serum of 17 latex-allergic patients; chemiluminescence difference from N2nd value of at least 35,000 = bound. As to the method:
Epitope mapping was carried out using a library of overlapping peptides (length: 15 amino acids) corresponding to the amino acid sequences identified as allergy components of latex. Specifically, the library of overlapping peptides was prepared on the basis of the amino acid sequences of SEQ ID NOs: 2 and 4.
The peptides to be synthesized were shifted by 10 amino acids.
For preparation of peptide arrays, the Intavis CelluSpots™ technique was used. Specifically, the peptide arrays were prepared by the following procedure: (1) synthesizing peptides of interest on amino-modified cellulose disks using an automated chemical synthesis apparatus (Intavis MultiPep RS), (2) dissolving the amino-modified cellulose disks to obtain a cellulose-bound peptide solution, and (3) spotting the cellulose-bound peptides onto coated glass slides. The details of each procedure are as described below.
The presence or absence of binding, to each peptide fragment, of an IgE antibody present in the serum of a latex-allergic patient was measured through antigen-antibody reaction using the peptide arrays. The measurement was carried out according to the following procedure.
(1) The peptides were shaken at room temperature for 1 hour in Pierce Protein-Free (PBS) Blocking Buffer (produced by Thermo Fisher Scientific). (2) The peptide arrays were shaken at overnight at 4° C. in 2% serum/Pierce Protein-Free (PBS) Blocking Buffer (produced by Thermo Fisher Scientific). (3) The peptide arrays were washed with PBST (a PBS buffer containing […] Tween 20 nonionic surfactant) for 5 minutes (×3). (4) Anti-human IgE antibody-HRP (1:20,000, Pierce Protein-Free (PBS) Blocking Buffer (produced by Thermo Fisher Scientific)) was added thereto, and the peptide arrays were shaken at room temperature for 1 hour. (5) The peptide arrays were washed with PBST for 5 minutes (×3). (6) Pierce ECL Plus Western Blotting Substrate (produced by Thermo Fisher Scientific) was added thereto, and the peptide arrays were shaken at room temperature for 5 minutes. (7) The chemiluminescence of the peptides treated as described above in (1) to (6) was measured using Amersham Imager 600.
Chemiluminescence intensity in images obtained by the measurement described above in (7) was converted into a numeric value using ImageQuant TL (GE Healthcare). The second highest value among numeric values determined from images obtained from results about the serum of 4 non-latex-allergic subjects was defined as the N2nd value. The N2nd value of each peptide was subtracted from numeric values determined from images obtained from results about the serum of 17 patients (17 latex-allergic patients; respectively given patient Nos. P1-P17). It was determined that a peptide having a value of at least 35,000 as the difference was a peptide bound to an IgE antibody in a patient-specific manner.
With “DLKSYKSNSVATDIY (epitope) [SEQ ID NO: 35]”, the “patient-specific binding of IgE antibody to peptide” value is reported as “confirmed to bind”.
The same measure, in the same setting: next, “KPYDKPLNDRYSYKN (epitope) [SEQ ID NO: 25]”: “confirmed to bind”.
Same read-out and setting: next, “PLTEDNFVIQKPYDK (epitope) [SEQ ID NO: 5]”: “confirmed to bind”; “VNVIHKVGKGEITVF (epitope) [SEQ ID NO: 68]”: “confirmed to bind”; “WSKFYDDKNGYSSSI (epitope) [SEQ ID NO: 83]”: “confirmed to bind”.

For the origin of these results see patent publication US20210231678A1, “ALLERGY ANTIGEN AND EPITOPE THEREOF” (FUJITA ACADEMY, priority 2020, published 2021).
